Results taken from patent US10479780B2, “Aminopyrazole derivatives” (Chugai Seiyaku Kabushiki Kaisha, priority 2015, dated 2019).

Key:
Assay type in all cases: biochemical
human Lck enzyme = molecular target: T1, human Lck enzyme (Homo sapiens, UniProt P06239); test: Lck enzyme inhibitory activity (time-resolved fluorometry, biotinylated peptide phosphorylation); settings: biotinylated peptide phosphorylation, read-out: LCK_IC50
T1 construct: purchased Carna Biosciences, Inc. 08-170
Procedure, shortened: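 Readout pairs a europium cryptate-labelled anti-phosphotyrosine antibody with XL665-streptavidin, measured by time-resolved fluorescence. IC50 derived from percent inhibition against untreated controls.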

human Src enzyme = molecular target: T2, human Src enzyme (Homo sapiens, UniProt P12931); test: Src enzyme inhibitory activity (time-resolved fluorometry, biotinylated peptide phosphorylation); settings: biotinylated peptide phosphorylation, read-out: SRC_IC50
T2 construct: purchased Carna Biosciences, Inc. 08-173
T2 sequence (P12931 whole entry): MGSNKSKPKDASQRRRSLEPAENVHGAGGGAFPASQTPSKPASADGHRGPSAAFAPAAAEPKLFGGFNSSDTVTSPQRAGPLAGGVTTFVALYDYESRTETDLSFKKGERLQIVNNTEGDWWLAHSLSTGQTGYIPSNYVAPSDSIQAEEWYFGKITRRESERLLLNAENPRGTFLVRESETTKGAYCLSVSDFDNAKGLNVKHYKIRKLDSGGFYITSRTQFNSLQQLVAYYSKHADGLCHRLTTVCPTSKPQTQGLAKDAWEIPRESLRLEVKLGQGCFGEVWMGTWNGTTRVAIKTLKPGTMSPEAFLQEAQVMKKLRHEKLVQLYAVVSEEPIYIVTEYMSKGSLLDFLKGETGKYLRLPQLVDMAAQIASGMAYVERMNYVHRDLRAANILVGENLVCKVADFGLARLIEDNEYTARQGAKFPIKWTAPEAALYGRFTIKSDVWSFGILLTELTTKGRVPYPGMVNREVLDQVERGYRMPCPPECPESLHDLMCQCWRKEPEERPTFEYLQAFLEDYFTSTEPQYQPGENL
Procedure, shortened: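 Compounds were tested for blocking tyrosine phosphorylation of a biotinylated peptide substrate by recombinant human Src. Phosphorylated product was quantified by time-resolved fluorometry using europium cryptate and XL665 conjugates, and IC50 was calculated against the compound-free control.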

human Yes1 enzyme = molecular target: T3, human Yes1 enzyme (Homo sapiens, UniProt P07947); test: Yes1 enzyme inhibitory activity (time-resolved fluorometry, biotinylated peptide phosphorylation); settings: biotinylated peptide phosphorylation, read-out: YES_IC50
T3 construct: made in house
T3 sequence (P07947 whole entry): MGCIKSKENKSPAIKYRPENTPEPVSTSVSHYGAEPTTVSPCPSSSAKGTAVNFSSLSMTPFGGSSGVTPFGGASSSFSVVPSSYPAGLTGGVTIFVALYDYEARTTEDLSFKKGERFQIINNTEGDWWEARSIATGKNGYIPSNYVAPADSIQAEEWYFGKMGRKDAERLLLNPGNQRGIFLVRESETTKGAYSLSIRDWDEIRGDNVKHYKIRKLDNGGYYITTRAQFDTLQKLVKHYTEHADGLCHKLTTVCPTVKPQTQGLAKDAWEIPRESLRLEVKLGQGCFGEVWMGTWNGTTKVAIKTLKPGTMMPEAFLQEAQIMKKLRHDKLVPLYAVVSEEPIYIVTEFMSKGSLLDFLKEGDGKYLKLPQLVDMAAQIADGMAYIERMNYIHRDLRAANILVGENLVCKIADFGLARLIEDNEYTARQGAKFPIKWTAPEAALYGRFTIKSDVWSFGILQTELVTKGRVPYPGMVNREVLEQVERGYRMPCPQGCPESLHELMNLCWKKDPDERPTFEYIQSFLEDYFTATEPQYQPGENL
Procedure, shortened: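 Inhibition was expressed against a compound-free control to give IC50, using TR-FRET read-out (Eu-cryptate anti-pTyr antibody, streptavidin-XL665).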

T1 sequence (P06239 whole entry): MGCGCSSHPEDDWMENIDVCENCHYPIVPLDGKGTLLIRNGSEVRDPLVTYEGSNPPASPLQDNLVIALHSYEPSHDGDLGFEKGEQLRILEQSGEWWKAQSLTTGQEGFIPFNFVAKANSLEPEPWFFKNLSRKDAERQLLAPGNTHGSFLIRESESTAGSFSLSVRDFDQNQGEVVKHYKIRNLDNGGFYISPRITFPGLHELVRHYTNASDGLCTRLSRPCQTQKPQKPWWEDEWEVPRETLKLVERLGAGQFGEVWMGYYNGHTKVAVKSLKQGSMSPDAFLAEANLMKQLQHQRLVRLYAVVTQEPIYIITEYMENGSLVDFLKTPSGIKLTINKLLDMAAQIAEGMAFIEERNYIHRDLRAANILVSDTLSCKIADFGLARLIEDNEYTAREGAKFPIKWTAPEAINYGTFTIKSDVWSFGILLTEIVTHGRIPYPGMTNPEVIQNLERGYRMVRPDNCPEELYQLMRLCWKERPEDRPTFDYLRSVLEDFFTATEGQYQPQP

IC50 (human Lck enzyme)	IC50 (human Src enzyme)	IC50 (human Yes1 enzyme)	SMILES
120 nM	710 nM	4.6 nM	Cc1cc(Oc2ccccc2F)ncc1-n1ncc(C(=O)c2cc3cc(F)c(NS(=O)(=O)c4cccc(F)n4)cc3[nH]2)c1N [Example 5-1-519, N-[2-[5-amino-1-[6-(2-fluorophenoxy)-4-methylpyridin-3-yl]pyrazole-4-carbonyl]-5-fluoro-1H-indol-6-yl]-6-fluoropyridine-2-sulfonamide]
67 nM	270 nM	2.7 nM	Cc1cnc(F)c(S(=O)(=O)Nc2cc3[nH]c(C(=O)c4cnn(-c5ccc(Oc6ccccc6F)cc5C)c4N)cc3cc2C)c1 [Example 5-1-520, N-[2-[5-amino-1-[4-(2-fluorophenoxy)-2-methylphenyl]pyrazole-4-carbonyl]-5-methyl-1H-indol-5-yl]-2-fluoro-5-methylpyridine-3-sulfonamide]
180 nM	470 nM	5.8 nM	Cc1cnc(F)c(S(=O)(=O)Nc2cc3[nH]c(C(=O)c4cnn(-c5cnc(Oc6c(F)cccc6F)cc5C)c4N)cc3cc2C)c1 [Example 5-1-521, N-[2-[5-amino-1-[6-(2,6-difluorophenoxy)-4-methylpyridin-3-yl]pyrazole-4-carbonyl]-5-methyl-1H-indol-6-yl]-2-fluoro-5-methylpyridine-3-sulfonamide]
120 nM	250 nM	1.8 nM	Cc1cnc(F)c(S(=O)(=O)Nc2cc3[nH]c(C(=O)c4cnn(-c5ccc(Oc6ccccc6F)cc5C)c4N)cc3cc2F)c1 [Example 5-1-522, N-[2-[5-amino-1-[4-(2-fluorophenoxy)-2-methylphenyl]pyrazole-4-carbonyl]-5-fluoro-1H-indol-6-yl]-2-fluoro-5-methylpyridine-3-sulfonamide]
200 nM	450 nM	6.3 nM	Cc1cnc(F)c(S(=O)(=O)Nc2cc3[nH]c(C(=O)c4cnn(-c5cnc(Oc6c(F)cccc6F)cc5C)c4N)cc3cc2F)c1 [Example 5-1-523, N-[2-[5-amino-1-[6-(2,6-difluorophenoxy)-4-methylpyridin-3-yl]pyrazole-4-carbonyl]-5-fluoro-1H-indol-6-yl]-2-fluoro-5-methylpyridine-3-sulfonamide]
210 nM	580 nM	5.7 nM	Cc1cnc(F)c(S(=O)(=O)Nc2cc3[nH]c(C(=O)c4cnn(-c5cnc(Oc6ccccc6F)cc5C)c4N)cc3cc2F)c1 [Example 5-1-524, N-[2-[5-amino-1-[6-(2-fluorophenoxy)-4-methylpyridin-3-yl]pyrazole-4-carbonyl]-5-fluoro-1H-indol-6-yl]-2-fluoro-5-methylpyridine-3-sulfonamide]
72 nM	400 nM	3.1 nM	Cc1cc2cc(C(=O)c3cnn(-c4ccc(Oc5ccccc5F)cc4C)c3N)[nH]c2cc1NS(=O)(=O)c1cccc(Cl)n1 [Example 5-1-525, N-[2-[5-amino-1-[4-(2-fluorophenoxy)-2-methylphenyl]pyrazole-4-carbonyl]-5-methyl-1H-indol-6-yl]-6-chloropyridine-2-sulfonamide]
250 nM	620 nM	8 nM	Cc1cc2cc(C(=O)c3cnn(-c4cnc(Oc5c(F)cccc5F)cc4C)c3N)[nH]c2cc1NS(=O)(=O)c1cccc(Cl)n1 [Example 5-1-526, N-[2-[5-amino-1-[6-(2,6-difluorophenoxy)-4-methylpyridin-3-yl]pyrazole-4-carbonyl]-5-methyl-1H-indol-6-yl]-6-chloropyridine-2-sulfonamide]
110 nM	500 nM	3.2 nM	Cc1cc(Oc2ccccc2F)ccc1-n1ncc(C(=O)c2cc3cc(F)c(NS(=O)(=O)c4cccc(Cl)n4)cc3[nH]2)c1N [Example 5-1-527, N-[2-[5-amino-1-[4-(2-fluorophenoxy)-2-methylphenyl]pyrazole-4-carbonyl]-5-fluoro-1H-indol-6-yl]-6-chloropyridine-2-sulfonamide]
230 nM	750 nM	8.8 nM	Cc1cc(Oc2c(F)cccc2F)ncc1-n1ncc(C(=O)c2cc3cc(F)c(NS(=O)(=O)c4cccc(Cl)n4)cc3[nH]2)c1N [Example 5-1-528, N-[2-[5-amino-1-[6-(2,6-difluorophenoxy)-4-methylpyridin-3-yl]pyrazole-4-carbonyl]-5-fluoro-1H-indol-6-yl]-6-chloropyridine-2-sulfonamide]
260 nM	840 nM	8.6 nM	Cc1cc(Oc2ccccc2F)ncc1-n1ncc(C(=O)c2cc3cc(F)c(NS(=O)(=O)c4cccc(Cl)n4)cc3[nH]2)c1N [Example 5-1-529, N-[2-[5-amino-1-[6-(2-fluorophenoxy)-4-methylpyridin-3-yl]pyrazole-4-carbonyl]-5-fluoro-1H-indol-6-yl]-6-chloropyridine-2-sulfonamide]
34 nM	200 nM	2.6 nM	Cc1cccc(S(=O)(=O)Nc2cc3[nH]c(C(=O)c4cnn(-c5ccc(Oc6ccccc6F)cc5C)c4N)cc3cc2C)n1 [Example 5-1-530, N-[2-[5-amino-1-[4-(2-fluorophenoxy)-2-methylphenyl]pyrazole-4-carbonyl]-5-methyl-1H-indol-6-yl]-6-melhylpyridine-2-sulfonamide]
110 nM	480 nM	4.9 nM	Cc1cccc(S(=O)(=O)Nc2cc3[nH]c(C(=O)c4cnn(-c5cnc(Oc6c(F)cccc6F)cc5C)c4N)cc3cc2C)n1 [Example 5-1-531, N-[2-[5-amino-1-[6-(2,6-difluorophenoxy)-4-melhylpyridin-3-yl]pyrazole-4-carbonyl]-5-methyl-1H-indol-6-yl]-6-methylpyridine-2-sulfonamide]

The remaining lines, values behind:

SMILES	IC50 (human Lck enzyme)	IC50 (human Src enzyme)	IC50 (human Yes1 enzyme)
COc1ccnc(S(=O)(=O)Nc2cc3[nH]c(C(=O)c4cnn(-c5ccc(Oc6ccccc6F)cc5C)c4N)cc3cc2C)c1 [Example 5-1-510, N-[2-[5-amino-1-[4-(2-fluorophenoxy)-2-methylphenyl]pyrazole-4-carbonyl]-5-methyl-1H-indol-6-yl]-4-methoxypyridine-2-sulfonamide]	89 nM	230 nM	0.92 nM
COc1ccnc(S(=O)(=O)Nc2cc3[nH]c(C(=O)c4cnn(-c5cnc(Oc6c(F)cccc6F)cc5C)c4N)cc3cc2C)c1 [Example 5-1-511, N-[2-[5-amino-1-[6-(2,6-difluorophenoxy)-4-methylpyridin-3-yl]pyrazole-4-carbonyl]-5-methyl-1H-indol-6-yl]-4-methoxypyridine-2-sulfonamide]	240 nM	520 nM	2.7 nM
COc1ccnc(S(=O)(=O)Nc2cc3[nH]c(C(=O)c4cnn(-c5ccc(Oc6ccccc6F)cc5C)c4N)cc3cc2F)c1 [Example 5-1-512, N-[2-[5-amino-1-[4-(2-fluorophenoxy)-2-methylphenyl]pyrazole-4-carbonyl]-5-fluoro-1H-indol-6-yl]-4-methoxypyridine-2-sulfonamide]	33 nM	250 nM	1.2 nM
COc1ccnc(S(=O)(=O)Nc2cc3[nH]c(C(=O)c4cnn(-c5cnc(Oc6c(F)cccc6F)cc5C)c4N)cc3cc2F)c1 [Example 5-1-513, N-[2-[5-amino-1-[6-(2,6-difluorophenoxy)-4-methylpyridin-3-yl]pyrazole-4-carbonyl]-5-fluoro-1H-indol-6-yl]-4-methoxypyridine-2-sulfonamide]	98 nM	510 nM	3.7 nM
COc1ccnc(S(=O)(=O)Nc2cc3[nH]c(C(=O)c4cnn(-c5cnc(Oc6ccccc6F)cc5C)c4N)cc3cc2F)c1 [Example 5-1-514, N-[2-[5-amino-1-[6-(2-fluorophenoxy)-4-methylpyridin-3-yl]pyrazole-4-carbonyl]-5-fluoro-1H-indol-6-yl]-4-methoxypyridine-2-sulfonamide]	140 nM	760 nM	3.3 nM
Cc1cc2cc(C(=O)c3cnn(-c4ccc(Oc5ccccc5F)cc4C)c3N)[nH]c2cc1NS(=O)(=O)c1cccc(F)n1 [Example 5-1-515, N-[2-[5-amino-1-[4-(2-fluorophenoxy)-2-methylphenyl]pyrazole-4-carbonyl]-5-methyl-1H-indol-6-yl]-6-fluoropyridine-2-sulfonamide]	59 nM	280 nM	2.4 nM
Cc1cc2cc(C(=O)c3cnn(-c4cnc(Oc5c(F)cccc5F)cc4C)c3N)[nH]c2cc1NS(=O)(=O)c1cccc(F)n1 [Example 5-1-516, N-[2-[5-amino-1-[6-(2,6-difluorophenoxy)-4-methylpyridin-3-yl]pyrazole-4-carbonyl]-5-methyl-1H-indol-6-yl]-6-fluoropyridine-2-sulfonamide]	91 nM	540 nM	5.1 nM
Cc1cc(Oc2ccccc2F)ccc1-n1ncc(C(=O)c2cc3cc(F)c(NS(=O)(=O)c4cccc(F)n4)cc3[nH]2)c1N [Example 5-1-517, N-[2-[5-amino-1-[4-(2-fluorophenaxy)-2-methylphenyl]pyrazole-4-carbonyl]-5-fluoro-1H-indol-5-yl]-6-fluoropyridine-2-sulfonamide]	34 nM	300 nM	2.1 nM
Cc1cc(Oc2c(F)cccc2F)ncc1-n1ncc(C(=O)c2cc3cc(F)c(NS(=O)(=O)c4cccc(F)n4)cc3[nH]2)c1N [Example 5-1-518, N-[2-[5-amino-1-[6-(2,6-difluorophenoxy)-4-methylpyridin-3-yl]pyrazole-4-carbonyl]-5-fluoro-1H-indol-6-yl]-6-fluoropyridine-2-sulfonamide]	82 nM	570 nM	5.8 nM
